# According to patent US20180185408A1, “ANTIFUNGAL NYLON-3 POLYMERS AND COMBINATION THERAPY USING THEM TO TREAT FUNGAL INFECTIONS” (priority 2016, published 2018):
# Several values for one entry are separate records, joined by “and”; a condition that tells them apart may be missing. Identical values can stand only once. Like-named read-outs stand apart in the source and are kept apart here.
# System: Aspergillus fumigatus
# Assay: Checkerboard microdilution synergy (FIC)
# Type: cell-based
# Details: for MIC: Aspergillus fumigatus
# [1] = MM:TM with Itraconazole, isolate F11628 (Resistance), […] 10^5 cells/mL
# [2] = MM:TM with Itraconazole, isolate F16216 (Resistance), […] 10^5 cells/mL
# [3] = MM:TM with ITRA, isolate 08-12-12-13 Cyp51 [TR34/L98H], Avg., 48 hours, 35° C.
# [4] = MM:TM with ITRA, isolate 08-19-02-61 Cyp51 [TR34/L98H], Avg., 48 hours, 35° C.
# [5] = MM:TM with ITRA, isolate 08-31-08-91 Cyp51 [TR34/L98H], Avg., 48 hours, 35° C.
# [6] = MM:TM with ITRA, isolate 08-36-03-25 Cyp51 [TR34/L98H], Avg., 48 hours, 35° C.
# [7] = MM:TM with ITRA, isolate 12-7505220 Cyp51 [TR34/L98H], Avg, 48 hours, 35° C.
# [8] = MM:TM with ITRA, isolate 12-7505446 Cyp51 [TR34/L98H], Avg., 48 hours, 35° C.
# [9] = MM:TM with ITRA, isolate D5 Cyp51 [G54E], Avg., 48 hours, 35° C.
# [10] = MM:TM with ITRA, isolate D6 Cyp51 [G54V], Avg., 48 hours, 35° C.
# [11] = MM:TM with ITRA, isolate D9 Cyp51 [M220K], Avg., 48 hours, 35° C.
smiles,measurement,setting,value
"CCC(C)n1ncn(-c2ccc(N3CCN(c4ccc(OCC5COC(Cn6cncn6)(c6ccc(Cl)cc6Cl)O5)cc4)CC3)cc2)c1=O (stereo not shown) [Itraconazole, itraconazole]",MIC azole combination,"08-19-02-61 Cyp51 [TR34/L98H], ITRA in combination with MM:TM, OD600, 48 h, 35° C.",>48 µg/mL and 48 µg/mL
same,FICazole,"08-19-02-61 Cyp51 [TR34/L98H], ITRA with MM:TM",1.000 and 0.500
same,MIC azole combination,"08-31-08-91 Cyp51 [TR34/L98H], ITRA in combination with MM:TM, OD600, 48 h, 35° C.",>48 µg/mL
same,FICazole,"08-31-08-91 Cyp51 [TR34/L98H], ITRA with MM:TM",1.000
same,MIC azole combination,"08-36-03-25 Cyp51 [TR34/L98H], ITRA in combination with MM:TM, OD600, 48 h, 35° C.",>48 µg/mL
same,FICazole,"08-36-03-25 Cyp51 [TR34/L98H], ITRA with MM:TM",1.000
same,FICazole,"AF293, ITRA with MM:TM",0.143 and 0.198 and 0.210
same,MIC,"48 h, CEA10, ITRA as single agent, 35° C.",> 1 µg/mL
same,MIC,"48 h, CEA10, MM:TM with Itraconazole, single agent, 48 h, read-out: MIC Alone",> 1.4 µM
same,MIC,"48 h, F11628, ITRA as single agent, 35° C.",48 µg/mL
same,MIC,"48 h, F16216, ITRA as single agent, 35° C.",32 µg/mL
same,MIC,"48 h, MM:TM with ITRA, […], Avg., 48 hours, 35° C.",1.06 µM
same,MIC,[1],48 µg/mL
same,MIC,[2],32 µg/mL
same,MIC Combined,"CEA10, MM:TM with Itraconazole in combination, 48 h",0.3 µM
same,MIC azole combination,"D5 Cyp51 [G54E], ITRA in combination with MM:TM, OD600, 48 h, 35° C.",>48 µg/mL
same,FICazole,"D5 Cyp51 [G54E], ITRA with MM:TM",1.000
same,MIC azole combination,"D7 Cyp51 [WT], ITRA in combination with MM:TM, OD600, 48 h, 35° C.",0.19 µg/mL and 0.375 µg/mL
same,FICazole,"D7 Cyp51 [WT], ITRA with MM:TM",0.253 and 0.500
same,MIC azole combination,"D9 Cyp51 [M220K], ITRA in combination with MM:TM, OD600, 48 h, 35° C.",>48 µg/mL
same,FICazole,"D9 Cyp51 [M220K], ITRA with MM:TM",1.000
same,MIC azole combination,"F11628, ITRA in combination with MM:TM, OD600, 48 h, 35° C.",1.06 µM
same,MIC azole combination,"F16216, ITRA in combination with MM:TM, OD600, 48 h, 35° C.",85.03 µM
same,FICazole,"F16216, ITRA with MM:TM",0.750 and 1.000 and 0.938
same,MIC azole combination,"MM:TM with ITRA, […], Avg., 48 hours, 35° C.",0.4 µM
same,FICazole,[3],0.917
same,MIC azole combination,[3],70.15 µM
same,FICazole,[4],0.75
same,MIC azole combination,[4],102.04 µM
same,FICazole,[5],1.000
same,MIC azole combination,[5],>68.02 µM
same,FICazole,[6],1.000
same,MIC azole combination,[6],>68.02 µM
same,FICazole,[7],0.917
same,MIC azole combination,[7],70.15 µM
same,FICazole,[8],0.035
same,MIC azole combination,[8],0.67 µM
same,FICazole,[9],1.000
same,MIC azole combination,[9],>68.02 µM
same,FICazole,[10],0.172
same,MIC azole combination,[10],18.96 µM
same,FICazole,[11],1.000
same,MIC azole combination,[11],>68.02 µM
same,FICazole,[1],0.008
same,FICazole,[2],1.000
same,increase in efficacy in the presence of MM:TM,azole-resistant strain F11628,> 100 fold
